Laboratory results from US20220324913A1, “ANTIGENIC NEURON SPECIFIC ENOLASE PEPTIDES FOR DIAGNOSING AND TREATING AUTISM” (THE REGENTS OF THE UNIVERSITY OF CALIFORNIA, priority 2019, published 2022).

Legend:
[1] = tested on: maternal autoantibodies (plasma from mothers of ASD and TD children); experiment: ELISA of maternal plasma reactivity to recombinant NSE; assay type: binding, human; conditions: for Reactivity observed, number of mothers: plasma 1:500
Method: Once NSE was identified as a viable antigenic candidate by WB, we evaluated a larger sample set for NSE reactivity using an ELISA method. We tested plasma from 418 mothers enrolled in the CHARGE study with at least one child with ASD (n=232) or control samples from mothers of typically developing children (TD; n=186). Microtiter plates were coated with 100 μl of NSE (Novus Biologicals, Littleton, Colo.) at 2 μg/ml in carbonate coating buffer pH 9.6, incubated overnight at 4° C., washed four times with PBST 0.05%, and blocked with 2% Super Block (Thermo Scientific, Rockford, Ill.) for 1 hour at room temperature (RT). The plasma samples were diluted 1:500 and run in duplicate. Following dilution, 100 μl of diluted sample was added to each well, incubated for 1.5 hours, washed 4×, then incubated with 1:10,000 goat anti-human IgG-HRP IgG (Kirkegaard & Perry Laboratories, Inc., Gaithersburg, Mass.) for 1 hour. The plates were then washed and detection was performed by adding 100 μl of BD optEIA liquid substrate for ELISA (BD Biosciences, San Jose, Calif.). After 4 minutes, the reaction was stopped with 50 μl of 2N HCl. The absorbance was measured at 490-450 nm using an iMark Microplate Absorbance Reader (Biorad, Hercules, Calif., USA).
For the ELISA assay, positive cutoff values for reactivity to NSE were determined using a ROC curve. The ROC curve was created by plotting the true positive rate against the false positive rate at various threshold settings. We therefore created our curve using seven positive samples (labeled as +) from mothers that have a child with ASD and were positive by WB (true positive samples) along with the test samples. By using the positive samples as the reference event, the cutoff has greater specificity (less false positives) although sacrificing some sensitivity (limit of detection). The ROC plots sensitivity versus 1−Specificity for each value creating an Area Under the Curve (AUC) that is a representation of the accuracy of the test. Youden's index was used to calculate the cutoff.
NSE was identified by mass spectrometry as a potential target of the maternal autoantibodies and, based on its critical role in neurodevelopment, we chose to further evaluate NSE as a potential MAR ASD biomarker. Recombinant NSE was used to verify maternal autoantibody reactivity first by WB followed by ELISA. […] Therefore, we utilized an approach similar to that used for the seven previously-described MAR autoantigens to probe the samples for differential epitope recognition between ASD and TD groups.

maternal autoantibodies = experiment: Western blot of recombinant proteins probed with maternal plasma; assay type: binding, human; conditions: compared with NNE, ALDOC and CKB; plasma 1:800
Method: To test autoantibody reactivity to FMB Fraction #12 that contained proteins between 37-45 kDa, the fraction was probed with maternal plasma samples as described previously (FIG. 1D). In summary, 200 μg of protein were denatured by heating at 100° C. for 10 min in SDS buffer and separated on a 12% SDS-PAGE gel at 200V for 1 hour. Proteins were transferred to a 0.2 μm nitrocellulose membrane overnight (10V for 16 hours) at 4° C. To confirm the transfer, the membrane was stained with Ponceau dye and cut into 3 mm strips that were labeled and blocked with 1% casein buffer. Plasma samples were then diluted (1:400), added to the strips, incubated for 1.5 hours at RT followed by five washes, and incubated with 1:20,000 goat anti-human IgG-HRP for 30 minutes. After five washes, detection was performed by adding 800 μl of Super Signal substrate and strips were placed on a glass plate to be imaged using the FluoroChem 8900 imager. Images were scored as 0 if negative and 1 if positive.
The top 4 commercially available antigens identified by mass spectrometry with a 100 C.I. were selected for further evaluation. To evaluate antibody reactivity against our top hits including NSE, NNE, ALDOC, and CKB, 2 μg protein of recombinant protein (Novus Biologicals, Littleton, Colo.) were probed with diluted maternal plasma (1:800) by WB as described previously. […]

NSE: recombinant neuron specific enolase protein (Novus Biologicals), target autoantigen of maternal autoantibodies
Reactivity observed, percent of mothers ([1]; mothers that had a child with ASD): 6.2% | Reactivity observed, percent of mothers ([1]; mothers that have a typically developing child (TD)): 5% | Reactivity observed, number of mothers ([1]; of 186 mothers that have a typically developing child): 21 | Reactivity observed, number of mothers ([1]; of the 232 mothers that had a child with ASD): 26 | Maternal autoantibody reactivity against recombinant protein (maternal autoantibodies): greatest specificity
